This note sets out measurements from ChEMBL document CHEMBL1201862, “PubChem BioAssay data set” (2004).

Each structure is given as a SMILES string.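 Grown in 96-well plates, cells were treated for 48 hours with each compound at five concentrations. Insufficient inhibition: endpoint recorded as highest concentration tested. At the GI50, growth is halved.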 Active and inactive are the calls of the source. Cut-off read from the data, not from the text of the source: active = GI50 up to about 1.1 µM and inactive = higher.

Among the test systems are XF498; KM-20L2; SNB-78; HOP-18; DMS-273; M19-MEL; DLD-1; LXFL 529; RXF 631.
What all share (assay): NCI-60 cell line screen, 48 h

For the compound `COc1ccc(CCc2ccccc2CC(=O)O)cc1`, the GI50 in the assay with XF498, in the assay on KM-20L2, in the assay with SNB-78, in the assay with HOP-18, with DMS-273 and in the assay on M19-MEL was > 100 µM (inactive) each time. The GI50 with DLD-1 and in the assay on LXFL 529 was > 100 µM (inactive) in each case.
Turning to `O=C1C=C(c2ccccc2)NC1(c1ccccc1)c1cc(-c2ccccc2)[nH]c1-c1ccccc1` (configuration not stated), the GI50 in the assay with XF498 was < 0.01 µM (active); in the assay with KM-20L2, > 100 µM (inactive); with RXF 631 it was > 100 µM (inactive); with SNB-78 it was > 100 µM (inactive); with HOP-18, > 100 µM (inactive); in the assay with DMS-273, > 100 µM (inactive). Further, the GI50 with M19-MEL, in the assay on DLD-1 and with LXFL 529 was > 100 µM (inactive) throughout.
In the case of `CCC1=C(CC)C1(C#N)[N+](=O)[O-]`, the GI50 with KM-20L2, in the assay on SNB-78, with DMS-273, with M19-MEL, with DLD-1 and with LXFL 529 was > 100 µM (inactive) each time.
For the compound `CCOC(=O)C1=C(C)N(Cc2ccccc2)C(=O)C1CC#N` (configuration not stated), the GI50 with XF498 is < 0.01 µM (active); in the assay on KM-20L2 it was > 100 µM (inactive); in the assay on SNB-78, 37.2 µM (inactive); in the assay with HOP-18, 17 µM (inactive); in the assay with DMS-273 it was > 100 µM (inactive); in the assay on M19-MEL it was > 100 µM (inactive). For the same compound, the results for the GI50 with DLD-1 and in the assay on LXFL 529 were 56.1 µM (inactive) and 43.4 µM (inactive), respectively.
Take `OC1=CN=COc2ccccc21`: the GI50 with KM-20L2, with RXF 631, in the assay with SNB-78, with DMS-273, with M19-MEL and with DLD-1 was > 100 µM (inactive) each time. Further, the GI50 in the assay on LXFL 529 is > 100 µM (inactive).
On to `CCCCCCCCCCCCCP(=O)(NCC(N)=O)OCC` (configuration not stated), for which the GI50 is 19.1 µM (inactive) in the assay with XF498; 17.4 µM (inactive) in the assay with KM-20L2; 18.9 µM (inactive) in the assay on RXF 631; 20 µM (inactive) with SNB-78; 2.38 µM (inactive) in the assay on HOP-18; 19.7 µM (inactive) in the assay with M19-MEL. Besides, the figures for the GI50 in the assay on DLD-1 and in the assay on LXFL 529 were 17.1 µM (inactive) and 16.8 µM (inactive), respectively.
For the compound `CC(=O)CC(=O)NC=O`, the GI50 with XF498, with KM-20L2, in the assay with RXF 631, in the assay on SNB-78, with HOP-18 and with DMS-273 was > 100 µM (inactive) each time. For the same compound, the GI50 in the assay on M19-MEL, with DLD-1 and in the assay with LXFL 529 was > 100 µM (inactive) throughout.
Take `O=C(Cc1ccccc1)NS(=O)(=O)c1ccccc1`: the GI50 in the assay with XF498, in the assay with KM-20L2, with RXF 631, with SNB-78, in the assay with HOP-18 and with DMS-273 was > 100 µM (inactive) in each case. Also, the GI50 with DLD-1 and in the assay on LXFL 529 was > 100 µM (inactive) each time.
Turning to `CC[C@@H]1OC2(C)CC(S(=O)(=O)c3ccccc3)CC1O2` (some centres not stated), the GI50 with KM-20L2, in the assay on RXF 631, in the assay with SNB-78, in the assay on HOP-18, in the assay with DMS-273 and in the assay on M19-MEL was > 100 µM (inactive) throughout. The GI50 in the assay with DLD-1 and in the assay on LXFL 529 was > 100 µM (inactive) throughout.
Take `CC(=O)C1CC2(c3ccccc3)C(=O)c3ccccc3N2O1` (configuration not stated): the GI50 with XF498, in the assay with KM-20L2, with SNB-78, with HOP-18, in the assay on DMS-273 and in the assay on M19-MEL was > 100 µM (inactive) throughout. Further, the GI50 in the assay on DLD-1 and in the assay on LXFL 529 was > 100 µM (inactive) each time.
For the compound `COCC(C)(C)/N=C/N1Cc2cc3ccccc3nc2C1`, the GI50 in the assay on XF498, in the assay on KM-20L2, in the assay with HOP-18, in the assay on M19-MEL and in the assay on DLD-1 was > 100 µM (inactive) in each case.
Regarding `CC(=O)N(C(C)=O)c1c(N)n(C)c(=O)[nH]c1=O`, the GI50 in the assay on XF498, with KM-20L2, with RXF 631, in the assay with DMS-273, in the assay with M19-MEL and in the assay with DLD-1 was > 100 µM (inactive) throughout. For the same compound, the GI50 in the assay on LXFL 529 is > 100 µM (inactive).
`COC1=C(C(=O)OC(C)(C)C)[C@]2(C)C(C(=O)OC(C)(C)C)C(OC)=C(C(=O)OC(C)(C)C)[C@]2(C)C1C(=O)OC(C)(C)C` (some centres not stated): the GI50 was > 100 µM (inactive) in the assay on XF498; > 100 µM (inactive) in the assay with KM-20L2; > 100 µM (inactive) in the assay on SNB-78; > 100 µM (inactive) in the assay with HOP-18; 97.7 µM (inactive) in the assay with DMS-273; > 100 µM (inactive) in the assay on M19-MEL. Besides, the GI50 in the assay on DLD-1 is 83.9 µM (inactive); in the assay on LXFL 529 it was > 100 µM (inactive).
Take `Cn1c(=O)c2c(nc(C[N+]3([O-])CCOCC3)n2C)n(C)c1=O`: the GI50 in the assay with XF498, in the assay on KM-20L2, in the assay with DMS-273, in the assay with M19-MEL, with DLD-1 and in the assay on LXFL 529 was > 100 µM (inactive) throughout.
`CC12C(=O)N(CCN)C(=O)C1C1c3ccccc3C2c2ccccc21` (configuration not stated): the GI50 with XF498, in the assay on KM-20L2, with SNB-78, in the assay on HOP-18, in the assay on DMS-273 and in the assay with M19-MEL was > 100 µM (inactive) throughout. Moreover, the GI50 with DLD-1 and with LXFL 529 was > 100 µM (inactive) each time.
On to `Cn1c2ccccc2n2c(=O)c3c(c(C#N)c12)CCCC3`, for which the GI50 with XF498, with KM-20L2, with SNB-78, in the assay on DMS-273, in the assay on M19-MEL and with DLD-1 was > 100 µM (inactive) throughout.
Regarding `C=C(CN(C)C)C(=O)c1ccccc1OC`, the GI50 in the assay with XF498 is 17.9 µM (inactive); in the assay with KM-20L2, 26.2 µM (inactive); in the assay with SNB-78, 25.6 µM (inactive); in the assay on HOP-18 it was 6.08 µM (inactive); with DMS-273 it was 17.2 µM (inactive); with M19-MEL, 16.3 µM (inactive). Moreover, the GI50 with DLD-1 is 4.49 µM (inactive); with LXFL 529, 3.68 µM (inactive).
Turning to `Nc1ccc(Nc2nc(F)nc(-c3c4ccccc4c4n3CCS4)n2)cc1`, the GI50 in the assay with XF498 was 4.91 µM (inactive); in the assay with KM-20L2, 18.1 µM (inactive); with RXF 631 it was 15 µM (inactive); in the assay on SNB-78 it was 36.1 µM (inactive); in the assay with HOP-18, 13.8 µM (inactive); with DMS-273, 10.4 µM (inactive). For the same compound, the GI50 in the assay on M19-MEL is 16.5 µM (inactive); in the assay on DLD-1 it was 16.7 µM (inactive); in the assay on LXFL 529, 14.9 µM (inactive).
In the case of `O=C1C=CN(C2OC(CO)C(O)C2O)C(=O)C1` (configuration not stated), the GI50 in the assay with KM-20L2 was 67.3 µM (inactive); in the assay with HOP-18, 557 µM (inactive); in the assay on DMS-273, 1730 µM (inactive); in the assay with M19-MEL it was 35.6 µM (inactive); in the assay with DLD-1, 24.6 µM (inactive).
As for `Cc1cc(Cl)ccc1NC1=NC(=O)C(CC(=O)Nc2ccc([N+](=O)[O-])cc2[N+](=O)[O-])S1` (configuration not stated), the GI50 in the assay with XF498 was 20.6 µM (inactive); with KM-20L2, 31.1 µM (inactive); with SNB-78 it was 28.6 µM (inactive); in the assay with DMS-273 it was 30.5 µM (inactive); in the assay on M19-MEL, 25.9 µM (inactive); with DLD-1, 34.1 µM (inactive). In addition, the GI50 in the assay with LXFL 529 is 18.8 µM (inactive).
`COC(=O)[C@@]12OC[C@]34C([C@@H](O)C1O)[C@@]1(C)CC(=O)C(O)=C(C)C1C[C@H]3OC(=O)[C@H](OC(=O)/C=C(/c1ccccc1)C(F)(F)F)[C@H]42` (some centres not stated): the GI50 with XF498 was 2.22 µM (inactive); in the assay on KM-20L2 it was 3.92 µM (inactive); in the assay on SNB-78, 9.1 µM (inactive); in the assay with HOP-18, 6.3 µM (inactive); with DMS-273 it was 0.989 µM (active); in the assay with M19-MEL it was 1.19 µM (inactive). The GI50 in the assay on DLD-1 was 5.41 µM (inactive); in the assay on LXFL 529, 2.65 µM (inactive).
Take `Cc1c(C(=O)/C=C/c2ccc3c(c2)OCO3)[n+]([O-])c2ccccc2[n+]1[O-]`: the GI50 in the assay with XF498 was 25.8 µM (inactive); in the assay with KM-20L2 it was 22.3 µM (inactive); in the assay on RXF 631, 53.6 µM (inactive); with SNB-78, 36.2 µM (inactive); in the assay on HOP-18, 86.7 µM (inactive); in the assay on DMS-273 it was 22.6 µM (inactive). Besides, the GI50 is 35.2 µM (inactive) in the assay on M19-MEL, 38.6 µM (inactive) in the assay with DLD-1 and 22.2 µM (inactive) in the assay with LXFL 529.
As for `CCC1(O)C(=O)OCc2c1cc1n(c2=O)Cc2cc3ccc(CO)cc3nc2-1` (configuration not stated), the GI50 is 1.29 µM (inactive) with XF498; 13.5 µM (inactive) in the assay with KM-20L2; 3.31 µM (inactive) in the assay on RXF 631; 5.46 µM (inactive) in the assay on HOP-18; 1.12 µM (active) in the assay with DMS-273; 3.71 µM (inactive) in the assay with M19-MEL. Besides, the results for the GI50 in the assay on DLD-1 and in the assay with LXFL 529 were 51.3 µM (inactive) and 26.7 µM (inactive), respectively.
With `CC(=O)OC(C)(C)/C=C/C(=O)[C@](C)(O)[C@H]1[C@H](O)C[C@@]2(C)[C@@H]3CC=C4[C@@H](C=C(O)C(=O)C4(C)C)[C@]3(C)C(=O)C[C@]12C` [CUCURBITACIN E], the GI50 is 0.0356 µM (active) in the assay on XF498; 0.0197 µM (active) in the assay with KM-20L2; 0.0406 µM (active) in the assay with RXF 631; 0.0914 µM (active) in the assay on SNB-78; 0.06 µM (active) in the assay with HOP-18; 0.0241 µM (active) in the assay on DMS-273. The values for the GI50 in the assay with M19-MEL, with DLD-1 and with LXFL 529 were 0.0807 µM (active), 0.0302 µM (active) and 0.0339 µM (active), respectively.
